Experimental data as given in DBAASP.
Values after ≈ are worked out from the molar mass of the structure shown.

Assays:
Test in all cases: ≥ marks a high value that may be exact or a test limit, other limits are often not marked, values filed in µg/mL are converted to µM
[1] = test system: Candida albicans ATCC 90028
[2] = test system: Escherichia coli ATCC 25922
[3] = test system: Staphylococcus aureus NCTC 8325
[4] = test system: Escherichia coli ATCC 25726
[5] = test system: Staphylococcus aureus ATCC 25923
Bacillus cereus = test system: Bacillus cereus
Leuconostoc lactis = test system: Leuconostoc lactis
Listeria innocua = test system: Listeria innocua
Micrococcus luteus = test system: Micrococcus luteus
[6] = test system: Staphylococcus aureus ATCC 29213
[7] = test system: Staphylococcus epidermidis
Streptococcus uberis = test system: Streptococcus uberis
Escherichia coli MG1655 = test system: Escherichia coli MG1655
[8] = test system: Klebsiella pneumoniae ATCC 700603
[9] = test system: Pseudomonas aeruginosa ATCC 10145
Candida albicans = test system: Candida albicans
[10] = test system: Pseudomonas aeruginosa PAO1
Escherichia coli JW0013 = test system: Escherichia coli JW0013

CC[C@H](C)[C@@H]1NC(=O)[C@H](C)NC(=O)[C@@H](NC(=O)[C@H](Cc2ccccc2)NC(=O)[C@@H](NC(=O)[C@H](CCCCN)NC(=O)[C@@H]2CCCN2C(=O)[C@H](CC(C)C)NC(=O)[C@H](Cc2ccccc2)NC(=O)[C@H](CCCCN)NC(=O)[C@H](C)NC(=O)[C@H](C)NC(=O)[C@@H](NC(=O)CNC(=O)[C@H](C)NC(=O)[C@@H](NC(=O)[C@@H](NC(=O)[C@@H]2CCCN2C(=O)[C@H](CC(C)C)NC(=O)[C@@H](N)Cc2ccccc2)C(C)C)[C@@H](C)CC)C(C)C)[C@@H](C)CC)CSSC[C@@H](C(=O)O)NC(=O)[C@H](CCCCN)NC(=O)[C@H](CCCCN)NC(=O)[C@H]([C@@H](C)O)NC1=O [FLPVIAGVAAKFLPKIFCAITKKC]
MIC [1]: 8 µM (≈ 20.6 µg/mL)
MIC [2]: 7 µM (≈ 18 µg/mL)
MIC [3]: 4 µM (≈ 10.3 µg/mL)

CC[C@H](C)[C@H](NC(=O)CNC(=O)[C@H](CC(N)=O)NC(=O)[C@H](CC(C)C)NC(=O)[C@H](CC(C)C)NC(=O)[C@H](CCCCN)NC(=O)CNC(=O)[C@@H](NC(=O)[C@@H](NC(=O)[C@@H]1CCCN1C(=O)[C@H](CC(C)C)NC(=O)[C@@H](NC(=O)[C@@H](NC(=O)[C@@H]1CCCN1C(=O)[C@H](CC(C)C)NC(=O)[C@@H](N)Cc1ccccc1)C(C)C)[C@@H](C)CC)C(C)C)[C@@H](C)CC)C(=O)N[C@@H](CC(C)C)C(N)=O [FLPVILPVIGKLLNGIL]
MIC [1]: ≥ 50 µM
MIC [2]: > 50 µM
MIC [3]: 25 µM (≈ 45.5 µg/mL)

CC[C@H](C)[C@H](NC(=O)[C@H](C)NC(=O)CN)C(=O)N[C@@H](CCCCN)C(=O)N[C@@H](CC(=O)O)C(=O)N[C@@H](C)C(=O)N[C@@H](CC(C)C)C(=O)N[C@@H](CCCCN)C(=O)NCC(=O)N[C@@H](C)C(=O)N[C@@H](C)C(=O)N[C@@H](CCCCN)C(=O)N[C@H](C(=O)N[C@H](C(=O)N[C@@H](C)C(=O)N[C@H](C(=O)N[C@@H](CCC(=O)O)C(=O)N[C@@H](CC(C)C)C(=O)N[C@@H](CC(C)C)C(=O)N[C@@H](CCCCN)C(=O)N[C@@H](CCCCN)C(=O)N[C@@H](C)C(=O)N[C@@H](CCC(N)=O)C(=O)N[C@H]1CSSC[C@@H](C(=O)O)NC(=O)[C@H]([C@@H](C)O)NC(=O)[C@H](CCCCN)NC(=O)[C@H](CCC(=O)O)NC(=O)[C@H](CC(C)C)NC(=O)[C@H](CCCCN)NC1=O)C(C)C)C(C)C)[C@@H](C)O [GAIKDALKGAAKTVAVELLKKAQCKLEKTC]
MIC [4]: 20 µM (≈ 62.5 µg/mL)
MIC [5]: 20 µM (≈ 62.5 µg/mL)

CC(C)C[C@H](NC(=O)[C@H](CC(C)C)NC(=O)[C@H](CC(N)=O)NC(=O)[C@H](C)NC(=O)CNC(=O)[C@H](Cc1ccccc1)NC(=O)[C@H](CCCCN)NC(=O)[C@H](CC(C)C)NC(=O)[C@H](C)NC(=O)[C@H](CCCCN)NC(=O)CNC(=O)[C@H](CC(C)C)NC(=O)[C@@H](NC(=O)[C@H](CO)NC(=O)CNC(=O)[C@H](Cc1ccccc1)NC(=O)CN)C(C)C)C(N)=O [GFGSVLGKALKFGANLL]
MIC [4]: ≥ 50 µM
MIC [5]: 12.5 µM (≈ 21.1 µg/mL)

CC[C@H](C)[C@H](NC(=O)CNC(=O)[C@H](Cc1ccccc1)NC(=O)[C@H](CC(C)C)NC(=O)CN)C(=O)N[C@@H](CC(C)C)C(=O)NCC(=O)N[C@@H](CO)C(=O)N[C@H](C(=O)N[C@@H](C)C(=O)N[C@@H](CCCCN)C(=O)N[C@@H](Cc1cnc[nH]1)C(=O)N[C@H](C(=O)N[C@@H](CC(C)C)C(=O)N1CCC[C@H]1C(=O)N[C@@H](Cc1cnc[nH]1)C(=O)N[C@H](C(=O)N[C@H](C(=O)N1CCC[C@H]1C(=O)N[C@H](C(=O)N[C@H](C(=O)N[C@@H](C)C(=O)N[C@@H](CCC(=O)O)C(=O)N[C@@H](Cc1cnc[nH]1)C(=O)N[C@@H](CC(C)C)C(N)=O)C(C)C)C(C)C)[C@@H](C)CC)C(C)C)C(C)C)C(C)C [GLFGILGSVAKHVLPHVIPVVAEHL]
MIC (Bacillus cereus): ≥ 38.4 µM
MIC (Leuconostoc lactis): 9.6 µM (≈ 25 µg/mL)
MIC (Listeria innocua): 9.6 µM (≈ 25 µg/mL)
MIC (Micrococcus luteus): 7.68 µM (≈ 20 µg/mL)
MIC [5]: 19.2 µM (≈ 50 µg/mL)
MIC [6]: 9.6 µM (≈ 25 µg/mL)
MIC [7]: 9.6 µM (≈ 25 µg/mL)
MIC (Streptococcus uberis): 19.2 µM (≈ 50 µg/mL)

CC[C@H](C)[C@H](NC(=O)[C@H](C)NC(=O)[C@H](CC(=O)O)NC(=O)[C@H](CC(C)C)NC(=O)[C@H](CC(C)C)NC(=O)CN)C(=O)N[C@@H](CCCCN)C(=O)N[C@@H](CC(=O)O)C(=O)N[C@H](C(=O)N[C@@H](C)C(=O)N[C@@H](CCC(N)=O)C(=O)N[C@@H](CC(N)=O)C(=O)N[C@@H](CC(C)C)C(=O)N[C@@H](Cc1ccccc1)C(=O)N[C@@H](C)C(=O)N[C@@H](CC(N)=O)C(=O)N[C@H](C(=O)N[C@@H](CC(C)C)C(=O)N[C@@H](CC(=O)O)C(=O)N[C@@H](CCCCN)C(=O)N[C@H](C(=O)N[C@@H](CCCCN)C(=O)N[C@H]1CSSC[C@@H](C(=O)O)NC(=O)[C@H](CCCCN)NC(=O)[C@H]([C@@H](C)O)NC(=O)[C@H](Cc2ccccc2)NC(=O)[C@H](CCCCN)NC1=O)[C@@H](C)CC)C(C)C)[C@@H](C)O [GLLDAIKDTAQNLFANVLDKIKCKFTKC]
MIC [1]: ≥ 50 µM
MIC [2]: 50 µM (≈ 155 µg/mL)
MIC [3]: ≥ 50 µM

CC[C@H](C)[C@H](NC(=O)[C@H](CCC(=O)O)NC(=O)[C@H](CO)NC(=O)[C@H](C)NC(=O)[C@H](CC(C)C)NC(=O)[C@H](C)NC(=O)[C@H](CCC(N)=O)NC(=O)CNC(=O)[C@H](Cc1ccccc1)NC(=O)[C@H](CCCCN)NC(=O)[C@H](CCCCN)NC(=O)[C@H](C)NC(=O)[C@H](CO)NC(=O)[C@H](Cc1cnc[nH]1)NC(=O)[C@H](CC(C)C)NC(=O)[C@H](Cc1ccccc1)NC(=O)[C@H](CCCCN)NC(=O)CNC(=O)[C@@H](NC(=O)CN)C(C)C)C(=O)N[C@@H](CCSC)C(=O)N[C@@H](CCCCN)C(=O)N[C@@H](CO)C(=O)O [GVGKFLHSAKKFGQALASEIMKS]
MIC [4]: ≥ 100 µM
MIC [5]: > 100 µM

CC(C)C[C@H](NC(=O)[C@H](Cc1ccc(O)cc1)NC(=O)[C@H](Cc1cnc[nH]1)NC(=O)[C@H](CCCCN)NC(=O)[C@H](CC(C)C)NC(=O)[C@H](C)NC(=O)[C@H](CC(C)C)NC(=O)[C@H](CCCCN)NC(=O)CNC(=O)[C@@H](NC(=O)[C@@H](NC(=O)[C@H](CCCCN)NC(=O)[C@@H](NC(=O)[C@H](CCC(=O)O)NC(=O)[C@H](C)NC(=O)[C@H](CCCCN)NC(=O)[C@H](CCCCN)NC(=O)[C@H](CC(C)C)NC(=O)[C@H](CC(C)C)NC(=O)[C@@H](NC(=O)[C@H](CCCN=C(N)N)NC(=O)[C@H](Cc1c[nH]c2ccccc12)NC(=O)CN)[C@@H](C)O)C(C)C)[C@@H](C)O)C(C)C)C(=O)O [GWRTLLKKAEVKTVGKLALKHYL]
MIC (Escherichia coli MG1655): 8.3 µM (≈ 22 µg/mL)
MIC [8]: 4.15 µM (≈ 11 µg/mL)
MIC [9]: 0.25 µM (≈ 0.663 µg/mL)
MIC [5]: 4.15 µM (≈ 11 µg/mL)

CC[C@H](C)[C@H](N)C(=O)N[C@H](C(=O)N[C@@H](CCC(=O)O)C(=O)N[C@@H](CCCCN)C(=O)N[C@@H](CC(C)C)C(=O)N[C@H](C(=O)N[C@@H](CC(N)=O)C(=O)N[C@H](C(=O)N[C@@H](C)C(=O)N[C@@H](CC(C)C)C(=O)NCC(=O)N[C@@H](CC(C)C)C(=O)N[C@@H](CC(C)C)C(=O)N[C@@H](CO)C(=O)NCC(=O)N[C@@H](CC(C)C)C(N)=O)[C@@H](C)O)C(C)C)[C@@H](C)CC [IIEKLVNTALGLLSGL]
MIC (Leuconostoc lactis): 25 µM (≈ 41.3 µg/mL)

CSCC[C@H](NC(=O)[C@@H](NC(=O)[C@@H](N)CCCCN)C(C)C)C(=O)N[C@@H](CCCN=C(N)N)C(=O)N[C@@H](CCC(=O)O)C(=O)N[C@H](C(=O)N[C@@H](CC(C)C)C(=O)NCC(=O)N[C@@H](Cc1ccc(O)cc1)C(=O)N[C@@H](CCC(=O)O)C(=O)N[C@@H](CCCN=C(N)N)C(=O)N[C@@H](CC(N)=O)C(=O)N[C@@H](CO)C(=O)N[C@@H](Cc1ccc(O)cc1)C(=O)N[C@@H](CCCCN)C(=O)N[C@@H](CCCCN)C(=O)N[C@@H](Cc1ccccc1)C(=O)N[C@@H](Cc1ccccc1)C(=O)N[C@@H](CC(C)C)C(=O)N[C@@H](CCCN=C(N)N)C(N)=O)C(C)C [KVMREVLGYERNSYKKFFLR]
MIC (Candida albicans): 128 µM (≈ 328 µg/mL)
MIC (Escherichia coli MG1655): ≥ 128 µM
MIC [10]: > 128 µM
MIC [5]: > 128 µM

CC[C@H](C)[C@H](NC(=O)[C@H](CCCN=C(N)N)NC(=O)[C@H](CCCN=C(N)N)NC(=O)[C@@H]1CCCN1C(=O)[C@@H]1CCCN1C(=O)[C@H](CCCN=C(N)N)NC(=O)[C@@H]1CCCN1C(=O)[C@H](CCCN=C(N)N)NC(=O)[C@@H]1CCCN1C(=O)[C@H](CC(C)C)NC(=O)[C@H](Cc1ccc(O)cc1)NC(=O)[C@@H]1CCCN1C(=O)[C@@H]1CCCN1C(=O)[C@H](CCCCN)NC(=O)[C@H](CC(=O)O)NC(=O)[C@@H](N)CC(C)C)C(=O)N[C@@H](Cc1ccc(O)cc1)C(=O)N[C@@H](CC(N)=O)C(=O)N[C@@H](CCCN=C(N)N)C(N)=O [LDKPPYLPRPRPPRRIYNR]
MIC (Escherichia coli JW0013): 2 µM (≈ 4.8 µg/mL)
